Assay results published in the NIST ThermoML archive (doi:10.1021/je060271a).
± gives the expanded uncertainty stated by the source.

Conditions: 283.15 K, Liquid, Vibrating tube method

CCCCC(=O)OCC(COC(=O)CCCC)(COC(=O)CCCC)COC(=O)CCCC [pentaerythritol tetrapentanoate]
Conditions	mass density [kg/m3]
2596 kPa	1028.7 ± 1.2
2607.6 kPa	1028.6 ± 1.2
2619.2 kPa	1028.8 ± 1.2
2631.2 kPa	1028.6 ± 1.2
2645.8 kPa	1028.6 ± 1.2
2657.4 kPa	1028.6 ± 1.2
2670 kPa	1028.7 ± 1.2
2684.8 kPa	1028.6 ± 1.2
2697.1 kPa	1028.5 ± 1.2
2708.7 kPa	1028.6 ± 1.2
2721.4 kPa	1028.6 ± 1.2
2736.6 kPa	1028.8 ± 1.2
2749.1 kPa	1028.6 ± 1.2
2762 kPa	1028.6 ± 1.2
2777.4 kPa	1028.7 ± 1.2
2790.4 kPa	1028.7 ± 1.2
2803.7 kPa	1028.6 ± 1.2
2819.5 kPa	1028.6 ± 1.2
2833.1 kPa	1028.7 ± 1.2
2846.4 kPa	1028.7 ± 1.2
2860.3 kPa	1028.7 ± 1.2
2874 kPa	1028.8 ± 1.2
2891 kPa	1028.7 ± 1.2
2904.7 kPa	1028.6 ± 1.2
2918.7 kPa	1028.8 ± 1.2
2935.2 kPa	1028.8 ± 1.2
2949.4 kPa	1028.8 ± 1.2
2963.8 kPa	1028.8 ± 1.2
2978.5 kPa	1028.7 ± 1.2
2995.7 kPa	1028.9 ± 1.2
3010.3 kPa	1028.8 ± 1.2
3025.5 kPa	1028.8 ± 1.2
3042.9 kPa	1028.9 ± 1.2
3057.8 kPa	1029 ± 1.2
3073.4 kPa	1028.9 ± 1.2
3091.7 kPa	1028.8 ± 1.2
3107 kPa	1028.9 ± 1.2
3122.3 kPa	1028.9 ± 1.2
3138 kPa	1029 ± 1.2
3156.6 kPa	1029 ± 1.2
3172.7 kPa	1028.9 ± 1.2
3191.8 kPa	1028.9 ± 1.2
3207.9 kPa	1029 ± 1.2
3224.7 kPa	1028.9 ± 1.2
3241.2 kPa	1029 ± 1.2
3261.6 kPa	1029 ± 1.2
3276.9 kPa	1028.9 ± 1.2
3297 kPa	1028.9 ± 1.2
3314 kPa	1029 ± 1.2
3334.8 kPa	1029.1 ± 1.2
3352.3 kPa	1029 ± 1.2
3369.8 kPa	1029 ± 1.2
3387.8 kPa	1029 ± 1.2
3405.8 kPa	1029.1 ± 1.2
3427.2 kPa	1029.1 ± 1.2
3444.8 kPa	1029.1 ± 1.2
3463.4 kPa	1029.2 ± 1.2
3485.6 kPa	1029 ± 1.2
3505 kPa	1029.1 ± 1.2
3523.9 kPa	1029.1 ± 1.2
3543.1 kPa	1029.2 ± 1.2
3562.2 kPa	1029.1 ± 1.2
3585.6 kPa	1029.1 ± 1.2
3605.1 kPa	1029.2 ± 1.2
3625.3 kPa	1029.2 ± 1.2
3645 kPa	1029.4 ± 1.2
3665.5 kPa	1029.2 ± 1.2
3689.4 kPa	1029.2 ± 1.2
3709.5 kPa	1029.3 ± 1.2
3729.7 kPa	1029.2 ± 1.2
3754.5 kPa	1029.2 ± 1.2
3775.8 kPa	1029.2 ± 1.2
3797 kPa	1029.3 ± 1.2
3821.9 kPa	1029.4 ± 1.2
3843.6 kPa	1029.4 ± 1.2
3865.6 kPa	1029.3 ± 1.2
3887.1 kPa	1029.4 ± 1.2
3913.4 kPa	1029.2 ± 1.2
3935.4 kPa	1029.2 ± 1.2
3957.4 kPa	1029.4 ± 1.2
3984.4 kPa	1029.5 ± 1.2
4007.1 kPa	1029.3 ± 1.2
4030 kPa	1029.5 ± 1.2
4053.3 kPa	1029.5 ± 1.2
4081.1 kPa	1029.5 ± 1.2
4104.4 kPa	1029.6 ± 1.2
4128.5 kPa	1029.5 ± 1.2
4157.3 kPa	1029.6 ± 1.2
4181.3 kPa	1029.5 ± 1.2
4205.4 kPa	1029.5 ± 1.2
4234.9 kPa	1029.5 ± 1.2
4260 kPa	1029.6 ± 1.2
4284.7 kPa	1029.5 ± 1.2
4314.9 kPa	1029.7 ± 1.2
4340 kPa	1029.7 ± 1.2
4366.5 kPa	1029.7 ± 1.2
4393.7 kPa	1029.7 ± 1.2
4426 kPa	1029.7 ± 1.2
4453.1 kPa	1029.7 ± 1.2
4480.4 kPa	1029.8 ± 1.2
4507.9 kPa	1029.8 ± 1.2
4542.4 kPa	1029.9 ± 1.2
4572 kPa	1029.7 ± 1.2
4602.1 kPa	1029.7 ± 1.2
4632.8 kPa	1029.7 ± 1.2
4669.8 kPa	1029.8 ± 1.2
4701.7 kPa	1030 ± 1.2
4733 kPa	1029.9 ± 1.2
4763.3 kPa	1029.9 ± 1.2
4792.9 kPa	1029.8 ± 1.2
4797.4 kPa	1029.9 ± 1.2
4798.1 kPa	1029.9 ± 1.2
4800.3 kPa	1029.9 ± 1.2
4801 kPa	1029.8 ± 1.2
4803.1 kPa	1030 ± 1.2
4805.2 kPa	1029.9 ± 1.2
4805.4 kPa	1030 ± 1.2
4807.6 kPa	1029.9 ± 1.2
4808.8 kPa	1029.9 ± 1.2
4810.7 kPa	1029.9 ± 1.2
4811.8 kPa	1029.9 ± 1.2
4812.5 kPa	1029.9 ± 1.2
4813.1 kPa	1029.9 ± 1.2
4813.3 kPa	1030 ± 1.2
4813.7 kPa	1029.9 ± 1.2
4814 kPa	1030 ± 1.2
4814.2 kPa	1029.9 ± 1.2
4814.4 kPa	1029.9 ± 1.2
4819 kPa	1030 ± 1.2
4836.2 kPa	1029.9 ± 1.2
4855.7 kPa	1029.9 ± 1.2
4877.5 kPa	1029.9 ± 1.2
4899 kPa	1030 ± 1.2
4924.1 kPa	1030 ± 1.2
4945.9 kPa	1029.9 ± 1.2
4969.3 kPa	1030 ± 1.2
4990.9 kPa	1030 ± 1.2
5013.2 kPa	1030 ± 1.2
5040.4 kPa	1030 ± 1.2
5062.7 kPa	1030 ± 1.2
5085.9 kPa	1030 ± 1.2
5113.1 kPa	1030.1 ± 1.2
5136.1 kPa	1030.1 ± 1.2
5159.8 kPa	1030 ± 1.2
5188.5 kPa	1030.1 ± 1.2
5213.2 kPa	1030.2 ± 1.2
5238.3 kPa	1030.2 ± 1.2
5263.4 kPa	1030 ± 1.2
5289.6 kPa	1030.3 ± 1.2
5314.9 kPa	1030.1 ± 1.2
5344.8 kPa	1030.1 ± 1.2
5370.4 kPa	1030.2 ± 1.2
5395.8 kPa	1030.2 ± 1.2
5426.8 kPa	1030.1 ± 1.2
5453.3 kPa	1030.3 ± 1.2
5479.6 kPa	1030.3 ± 1.2
5512.1 kPa	1030.3 ± 1.2
5539.8 kPa	1030.4 ± 1.2
5567.4 kPa	1030.3 ± 1.2
5595.3 kPa	1030.4 ± 1.2
